# Data from patent US20070213339A1 (Bayer Pharmaceuticals Corporation, priority 2004, published 2007).
# Tested on: Colo205 human colon carcinoma cell line
# Experiment: In vitro tumor cell proliferation assay (MTS, CellTiter 96 Aqueous One Solution)
# Assay type: cell-based
# Conditions: COLO 205, Colo205 cells, 72 hours compound exposure, MTS absorbance at 490 nm, read-out: IC50 (concentration of test compound required to inhibit proliferation of 50% of the cells)
# In short: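 Proliferation measured as MTS tetrazolium reduction (490 nm) after 72 h compound exposure at 37 °C. Cells plated at 2000 per well in serum-supplemented RPMI-1640; duplicate 5-point dilutions topping out at 10-20 μM. Percent inhibition versus untreated and cell-free wells, IC50 derived by linear regression.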
row,IC50 [nM],Structure (SMILES)
1,< 500,"COc1c(N2CCN(c3ccccc3)CC2)c(F)cc2c(=O)c(C(=O)O)cn(-c3ccc(CN(C)C)cc3)c12 [Example 97, 1-{4-[(dimethylamino)methyl]phenyl}-6-fluoro-8-methoxy-4-oxo-7-(4-phenylpiperazin-1-yl)-1,4-dihydroquinoline-3-carboxylic acid]"
2,< 500,"COc1c(N2CCN(c3ccc(Cl)cc3)CC2)c(F)cc2c(=O)c(C(=O)O)cn(-c3ccc(CN4CCCCC4)cc3)c12 [Example 90, 7-[4-(4-chlorophenyl)piperazin-1-yl]-6-fluoro-8-methoxy-4-oxo-1-[4-(piperidin-1-ylmethyl)phenyl]-1,4-dihydroquinoline-3-carboxylic acid]"
3,< 500,"CCN(C)Cc1ccc(-n2cc(C(=O)O)c(=O)c3cc(F)c(N4CCN(c5ncccc5C#N)CC4)c(OC(F)(F)Cl)c32)cc1 [Example 166, 8-[chloro(difluoro)methoxy]-7-[4-(3-cyanopyridin-2-yl)piperazin-1-yl]-1-(4-{[ethyl(methyl)amino]methyl}phenyl)-6-fluoro-4-oxo-1,4-dihydroquinoline-3-carboxylic acid]"
4,< 500,"CC1CCCN1Cc1ccc(-n2cc(C(=O)O)c(=O)c3cc(F)c(N4CCN(c5ccc(F)cc5)CC4)c(Cl)c32)cc1 (centres unmarked) [Example 18, 8-chloro-6-fluoro-7-[4-(4-fluorophenyl)-piperazin-1-yl]-1-{4-[(2-methylpyrrolidin-1-yl)methyl]phenyl}-4-oxo-1,4-dihydroquinoline-3-carboxylic acid]"
5,< 500,"CCN(CC)Cc1ccc(-n2cc(C(=O)O)c(=O)c3cc(F)c(N4CCN(c5ccccc5C#N)CC4)c(OC(F)(F)Cl)c32)cc1 [Example 162, 8-[chloro(difluoro)methoxy]-7-[4-(2-cyanophenyl)piperazin-1-yl]-1-{4-[(diethylamino)methyl]phenyl}-6-fluoro-4-oxo-1,4-dihydroquinoline-3-carboxylic acid]"
6,< 500,"N#Cc1cccnc1N1CCN(c2c(F)cc3c(=O)c(C(=O)O)cn(-c4ccc(CN5CCCC5)nc4)c3c2Cl)CC1 [Example 35, 8-chloro-7-[4-(3-cyanopyridin-2-yl)piperazin-1-yl]-6-fluoro-4-oxo-1-[6-(pyrrolidin-1-ylmethyl)pyridin-3-yl]-1,4-dihydroquinoline-3-carboxylic acid]"
7,< 500,"CCN(C)Cc1ccc(-n2cc(C(=O)O)c(=O)c3cc(F)c(N4CCN(c5ncccn5)CC4)c(OC(F)(F)Cl)c32)cc1 [Example 165, 8-[chloro(difluoro)methoxy]-1-(4-{[ethyl(methyl)amino]methyl}phenyl)-6-fluoro-4-oxo-7-(4-pyrimidin-2-ylpiperazin-1-yl)-1,4-dihydroquinoline-3-carboxylic acid]"
8,< 500,"O=C(O)c1cn(-c2ccc(CN3CC[C@@H](O)C3)cc2)c2c(Cl)c(N3CCN(c4ccc(F)cc4)CC3)c(F)cc2c1=O [Example 31, 8-chloro-6-fluoro-7-[4-(4-fluorophenyl)-piperazin-1-yl]-1-(4-{[(3R)-3-hydroxypyrrolidin-1-yl]methyl}phenyl)-4-oxo-1,4-dihydroquinoline-3-carboxylic acid]"
9,< 500,"CC1CCC(C)N1Cc1ccc(-n2cc(C(=O)O)c(=O)c3cc(F)c(N4CCN(c5ccccn5)CC4)c(Cl)c32)cc1 (centres unmarked) [Example 19, 8-chloro-1-{4-[(2,5-dimethylpyrrolidin-1-yl)methyl]phenyl}-6-fluoro-4-oxo-7-(4-pyridin-2-ylpiperazin-1-yl)-1,4-dihydroquinoline-3-carboxylic acid]"
10,500 to 2000,"COc1c(N2CCN(c3ccccc3C#N)CC2)c(F)cc2c(=O)c(C(=O)O)cn(-c3ccc(CN(C)C)cc3)c12 [Example 95, 7-[4-(2-cyanophenyl)piperazin-1-yl]-1-{4-[(dimethylamino)methyl]phenyl}-6-fluoro-8-methoxy-4-oxo-1,4-dihydroquinoline-3-carboxylic acid]"
11,< 500,"COC[C@H]1CCCN1Cc1ccc(-n2cc(C(=O)O)c(=O)c3cc(F)c(N4CCN(c5ccc(F)cc5)CC4)c(Cl)c32)cc1 [Example 23, 8-chloro-6-fluoro-7-[4-(4-fluorophenyl)-piperazin-1-yl]-1-(4-{[(2R)-2-(methoxymethyl)pyrrolidin-1-yl]methyl}phenyl)-4-oxo-1,4-dihydroquinoline-3-carboxylic acid]"
12,< 500,"N#Cc1ccc(N2CCN(c3c(F)cc4c(=O)c(C(=O)O)cn(-c5ccc(CN6CCCC6)c(F)c5)c4c3Cl)CC2)cc1 [Example 188, 8-chloro-7-[4-(4-cyanophenyl)-piperazine-1-yl]-6-fluoro-1-(3-fluoro-4-pyrrolidin-1-ylmethyl-phenyl)-4-oxo-1,4-dihydroquinoline-3-carboxylic acid]"
13,< 500,"CN(C)Cc1ccc(-n2cc(C(=O)O)c(=O)c3cc(F)c(N4CCN(c5cccc(Cl)c5)CC4)c(OC(F)(F)F)c32)cc1 [Example 130, 7-[4-(3-chlorophenyl)piperazin-1-yl]-1-{4-[(dimethylamino)methyl]phenyl}-6-fluoro-4-oxo-8-(trifluoromethoxy)-1,4-dihydroquinoline-3-carboxylic acid]"
14,500 to 2000,"O=C(O)c1cn(-c2ccc(CN3CCCC3)cc2)c2c(Cl)c(N3CCN(c4ccc(F)cc4F)CC3)c(F)cc2c1=O [Example 8, 8-chloro-7-[4-(2,4-difluorophenyl)piperazin-1-yl]-6-fluoro-4-oxo-1-[4-(pyrrolidin-1-ylmethyl)phenyl]-1,4-dihydroquinoline-3-carboxylic acid]"
15,2000 to 20000,"O=C(O)c1cn(-c2cccc(CN3CCCCC3)c2)c2c(OC(F)(F)F)c(N3CCN(c4ccccc4F)CC3)c(F)cc2c1=O [Example 144, 6-fluoro-7-[4-(2-fluorophenyl)piperazin-1-yl]-4-oxo-1-[3-(piperidin-1-ylmethyl)phenyl]-8-(trifluoromethoxy)-1,4-dihydroquinoline-3-carboxylic acid]"
16,< 500,"COC[C@@H]1CCCN1Cc1ccc(-n2cc(C(=O)O)c(=O)c3cc(F)c(N4CCN(c5ccccn5)CC4)c(Cl)c32)cc1 [Example 24, 8-chloro-6-fluoro-1-(4-{[(2S)-2-(methoxy-methyl)pyrrolidin-1-yl]methyl}phenyl)-4-oxo-7-(4-pyridin-2-ylpiperazin-1-yl)-1,4-dihydroquinoline-3-carboxylic acid]"
17,< 500,"CCN(CC)Cc1ccc(-n2cc(C(=O)O)c(=O)c3cc(F)c(N4CCN(c5ccc(Cl)cc5)CC4)c(OC)c32)cc1 [Example 118, 7-[4-(4-chlorophenyl)piperazin-1-yl]-1-{4-[(diethylamino)methyl]phenyl}-6-fluoro-8-methoxy-4-oxo-1,4-dihydroquinoline-3-carboxylic acid]"
18,< 500,"CCN(CC)Cc1ccc(-n2cc(C(=O)O)c(=O)c3cc(F)c(N4CCN(c5ccc(C(C)=O)cc5)CC4)c(OC)c32)cc1 [Example 116, 7-[4-(4-acetylphenyl)piperazin-1-yl]-1-{4-[(diethylamino)methyl]phenyl}-6-fluoro-8-methoxy-4-oxo-1,4-dihydroquinoline-3-carboxylic acid]"
19,< 500,"O=C(O)c1cn(-c2ccc(CN3CCCC3)cc2)c2c(OC(F)(F)Cl)c(N3CCN(c4ccccn4)CC3)c(F)cc2c1=O [Example 146, 8-[chloro(difluoro)methoxy]-6-fluoro-4-oxo-7-(4-pyridin-2-ylpiperazin-1-yl)-1-[4-(pyrrolidin-1-ylmethyl)phenyl]-1,4-dihydroquinoline-3-carboxylic acid]"
20,< 500,"CCN(CC)Cc1ccc(-n2cc(C(=O)O)c(=O)c3cc(F)c(N4CCN(c5ccccc5C#N)CC4)c(OC)c32)cc1 [Example 117, 7-[4-(2-cyanophenyl)piperazin-1-yl]-1-{4-[(diethylamino)methyl]phenyl}-6-fluoro-8-methoxy-4-oxo-1,4-dihydroquinoline-3-carboxylic acid]"
21,< 500,"O=C(O)c1cn(-c2ccc(CN3CCCC3)cc2F)c2c(Cl)c(N3CCN(c4ccc(Cl)cc4)CC3)c(F)cc2c1=O [Example 42, 8-chloro-7-[4-(4-chlorophenyl)piperazin-1-yl]-6-fluoro-1-[2-fluoro-4-(pyrrolidin-1-ylmethyl)phenyl]-4-oxo-1,4-dihydroquinoline-3-carboxylic acid]"
22,< 500,"COc1c(N2CCN(c3ccc(F)cc3)CC2)c(F)cc2c(=O)c(C(=O)O)cn(-c3ccc(CN4CCCC4)cc3)c12 [Example 74, 6-fluoro-7-[4-(4-fluorophenyl)piperazin-1-yl]-8-methoxy-4-oxo-1-[4-(pyrrolidin-1-ylmethyl)phenyl]-1,4-dihydroquinoline-3-carboxylic acid]"
23,< 500,"O=C(O)c1cn(-c2ccc(CN3CCCC3)cc2)c2c(OC(F)(F)Cl)c(N3CCN(c4ccccc4)CC3)c(F)cc2c1=O [Example 152, 8-[chloro(difluoro)methoxy]-6-fluoro-4-oxo-7-(4-phenylpiperazin-1-yl)-1-[4-(pyrrolidin-1-ylmethyl)phenyl]-1,4-dihydroquinoline-3-carboxylic acid]"
24,2000 to 20000,"O=C(O)c1cn(-c2cccc(CN3CCCCC3)c2)c2c(Cl)c(N3CCN(c4ccccc4F)CC3)c(F)cc2c1=O [Example 63, 8-chloro-6-fluoro-7-[4-(2-fluorophenyl)-piperazin-1-yl]-4-oxo-1-[3-(piperidin-1-ylmethyl)phenyl]-1,4-dihydroquinoline-3-carboxylic acid]"
25,< 500,"CCN(CC)Cc1ccc(-n2cc(C(=O)O)c(=O)c3cc(F)c(N4CCN(c5ncccc5C#N)CC4)c(OC)c32)cc1 [Example 113, 7-[4-(3-cyanopyridin-2-yl)piperazin-1-yl]-1-{4-[(diethylamino)methyl]phenyl}-6-fluoro-8-methoxy-4-oxo-1,4-dihydroquinoline-3-carboxylic acid]"
26,< 500,"Cc1cccc(N2CCN(c3c(F)cc4c(=O)c(C(=O)O)cn(-c5ccc(CN6CCCC6)cc5F)c4c3Cl)CC2)n1 [Example 175, 8-chloro-6-fluoro-1-(2-fluoro-4-pyrrolidin-1-ylmethyl-phenyl)-7-[4-(6-methylpyridine-2-yl)-piperazine-1-yl]-4-oxo-1,4-dihydroquinoline-3-carboxylic acid]"
